Literature values in patent US10004754B2, “ANP fragment adjuvant therapy to standard of care (SOC) diuretic treatment” (MADELEINE PHARMACEUTICALS PTY LTD, priority 2014, dated 2018).

Tested on: ADCHF patients
Details: cited from earlier work

nesiritide: A recombinant form of human BNP, approved by the FDA for the treatment of ADCHF
diuresis in ADCHF patients (Gottlieb, 2013): does not increase diuresis
patient mortality or re-hospitalisation rate (O'Conner et al., 2011): not associated with a change
